Measured values taken from patent US10280179B2, “Spiroquinoxaline derivatives as inhibitors of non-apoptotic regulated cell-death” (Helmholtz Zentrum Munchen—Deutches Forschungszentrum Fur …, priority 2013, dated 2019).
Where two headings read alike, the source gives them in different places.

Assays:
Assay type in all cases: cell-based
[1] = test system: Pfa1 cells; assay: Inhibition of non-apoptotic cell death after tamoxifen-induced GPx4 knockout in a recombinant cell line (Example B.4); conditions: Mus musculus, read-out: Pfa1/TAM IC50
Source text: Inhibition of Non-Apoptotic Cell-Death by Compounds Disclosed Herein Using a Recombinant Cell Line
To combat high intracellular ROS levels, mammalian cells have evolved an intricate network of ROS scavenging in cells, in which the thioredoxin and glutathione (GSH) dependent systems prevail. […] Knockout of GPx4 in neurons causes massive neurodegeneration in cortical, cerebellar and hippocampal neurons underscoring the high relevance of ROS-induced cell death signaling in the brain. Briefly, immortalised fibroblasts from these mice were made to contain tamoxifen-inducible CreERT2, which catalyzes the functional ablation of both copies of GPx4 and resulting in a complete knockout of GPx4, a massive ROS burst, and cell death in cell culture. These cells (Pfa1 cells) were used to characterize compounds of the present invention, whereby tamoxifen (TAM) was given on day 0 along with the compound under test, and 72 hours later cell survival was evaluated using AlamarBlue.

[2] = test system: human neuroblastoma cell line SH-SY5Y; assay: Inhibition of BSO-induced non-apoptotic cell death (Example B.1); conditions: SH-SY5Y cells, 72 hours
Source text: Inhibition of BSO-Induced Non-Apoptotic Cell Death by Compounds Disclosed Herein
L-Buthionine sulfoximine (BSO) is a well-known glutathione (GSH) depletory, which inhibits gamma-glutamyl-cysteine-synthetase, the enzyme catalyzing the rate-limiting step in GSH biosynthesis. The human neuroblastoma cell line SH-SY5Y is sensitive to BSO-induced intracellular glutathione depletion, which causes high levels of reactive oxygen species (ROS) and cellular stress mimicking cellular conditions following ischemia (cf., e.g., Yamada et al., Neurochem. Int. 59:1003-9 (2011)).
Compounds disclosed herein were evaluated for their ability to promote cell survival upon administration of a lethal dose of BSO to cell-culture medium. Briefly, SH-SY5Y cells (ATCC® CRL-2266™) were propagated in DMEM supplemented with 10% FBS/1% Penicillin-Streptomycin, and then seeded onto 96-well plates at a concentration of 750 cells/well in 100 μL of media, to which BSO (Sigma Aldrich) was added (to a final concentration of 50 μM) together with increasing concentrations of the compound to be tested, and the plates incubated at 37° C./5% CO2 for 72 hours. Compound dilutions (0.5 pM to 100 μM) were prepared from 10 mM stocks dissolved in DMSO and diluted in media. Cells treated with BSO alone were used as negative control and alpha-Tocopherol (Sigma Aldrich) was used as positive control. Compound concentrations were tested in triplicate. After incubation, cell survival was detected using the live/dead cell assay AquaBluer™ (MultiTarget Pharmaceuticals) and quantified using a fluorescence plate reader (excitation filter: 530-560 nm/emission filter: 590 nm) (SpectraMax M4; Molecular Devices). Fluorescence data so obtained was normalised to the percentage of surviving cells and IC50 values calculated using the GraphPad Prism (GraphPad Software, Inc) software package.

[3] = test system: mouse hippocampal cell line (Ht22); assay: Inhibition of glutamate-induced non-apoptotic cell death (Example B.2); conditions: HT-22, Ht22 cells
Source text: Inhibition of Glutamate-Induced Non-Apoptotic Cell Death by Compounds of the Present Invention
Glutamate toxicity is conferred on cells from the mouse hippocampal cell line (Ht22) by inhibition of the cysteine/glutamate antiporter, System xc-, leading to impaired cysteine uptake and subsequent GSH depletion. This model is frequently used for mimicking glutathione depletion following oxidative stress in stroke, brain trauma and other neurodegenerative diseases and cellular conditions following ischemia (for example: van Leyen et al, J. Neurochem. 92:824-30 (2005)).
Compounds disclosed herein were evaluated for their ability to promote cell survival upon administration of a lethal dose of glutamate (GLU) to the cell-culture medium.
Briefly, Ht22 cells (ATCC) were propagated DMEM supplemented with 10% FBS/1% Penicillin-Streptomycin, and then seeded onto 96-well plates at a concentration of 2,000 cells/well in 100 μL of MEDIA, simultaneously with glutamate (Sigma Aldrich) to a final concentration of 5 mM, together with increasing concentrations of the compound to be tested (0.5 pM to 100 μM), and the plates incubated at 37° C./5% CO2 for 72 hours. Compound dilutions were prepared from 10 mM stocks dissolved in DMSO and diluted in media. Cells treated with glutamate alone were used as negative control and alpha-tocopherol (Sigma Aldrich) was used as positive control. Compound concentrations were tested in triplicate. After incubation, cell survival was detected and quantified as described in Example B.1.

[4] = Cellular toxicity, same assay as Example B.4 without TAM (Example B.5); conditions: mouse; Pfa1 cells without TAM; read-out: TC50 (the source's name)
Source text: Cellular Toxicity of Compounds of the Invention
An estimate of the toxicity for compounds of the invention was obtained by using the same assay as described in Example B.4, but without the addition of TAM. […] Such TC50 values obtained for certain compounds disclosed herein, together with an approximate therapeutic window (estimated by dividing each TC50 by the corresponding IC50 determined from example B.4) are shown in Table 3.

[5] = 50 μM BSO, read-out: SH-SY5Y/BSO IC50
[6] = glutamate-induced cell death, read-out: Ht22/GLU

Compound | IC50 [1] [nM] | IC50 [2, 5] [nM] | IC50 [3, 6] [nM] | CC50 [4] [nM] | IC50 ([2]; BSO 50 μM, cell survival (AquaBluer), read-out: SH-SY5Y/BSO (Example B.1) IC50) [nM] | IC50 ([3]; glutamate 5 mM, 72 hours, cell survival, read-out: Ht22/GLU (Example B.2) IC50) [nM]
Clc1cccc(CNC2=Nc3ccccc3NC23CCCCC3)c1 [C-2] | < 100 | < 100 | < 500 | 10000 to 20000 | – | –
Clc1ccc(CNC2=Nc3ccccc3NC23CCNCC3)cc1 [N-3] | < 10 | < 50 | < 50 | 5000 to 10000 | – | –
Cc1cc2c(cc1C)NC1(CCOCC1)C(NCc1ccccc1)=N2 [O/S-340] | < 500 | < 200 | < 500 | 20000 to 50000 | – | –
CC1CC2(CCN1)Nc1ccccc1N=C2NCc1cccc(Cl)c1 (centres unmarked) [N-239] | < 1000 | < 50 | < 200 | 5000 to 10000 | – | –
Fc1cccc(F)c1CNC1=Nc2ccccc2NC12CCCCCC2 [C-266] | < 500 | < 100 | < 500 | 10000 to 20000 | – | –
Cc1cc2c(cc1C)NC1(CCSCC1)C(NCc1ccccc1)=N2 [O/S-369] | < 100 | < 50 | < 200 | 10000 to 20000 | – | –
FC(F)(F)c1ccc2c(c1)N=C(NCc1ccccc1)C1(CCCCC1)N2 [C-259] | < 500 | < 100 | < 500 | 5000 to 10000 | – | –
CC(=O)NC1CCC2(CC1)Nc1ccccc1N=C2NCc1cccc(Cl)c1 (centres unmarked) [C-111] | < 1000 | < 500 | < 1000 | 10000 to 20000 | – | –
Clc1cc2c(cc1Cl)NC1(CCOCC1)C(NCc1ccccc1)=N2 [O/S-339] | < 50 | < 20 | < 200 | 20000 to 50000 | – | –
FC(F)(F)c1cccc2c1N=C(NCc1ccccc1)C1(CCCCC1)N2 [C-254] | < 500 | < 50 | < 500 | 5000 to 10000 | – | –
Fc1cc2c(cc1F)NC1(CCCCC1)C(NCc1cccc(Cl)c1)=N2 [C-137] | < 200 | < 200 | < 200 | 10000 to 20000 | – | –
Clc1cc2c(cc1Cl)NC1(CCCCC1)C(NCc1ccccc1)=N2 [C-217] | < 50 | < 50 | < 200 | 20000 to 50000 | – | –
c1ccc(CCNC2=Nc3ccccc3NC23CCSCC3)cc1 [O/S-368] | < 5000 | < 2000 | < 2000 | 20000 to 50000 | – | –
Cc1ccc(CNC2=Nc3ccccc3NC23CCCCC3)cc1 [C-12] | < 500 | < 500 | < 500 | 50000 to 100000 | 468 | 298
Cc1cccc(CNC2=Nc3cc(Cl)c(Cl)cc3NC23CCCCCC3)c1 [C-267] | < 200 | < 100 | < 500 | 10000 to 20000 | – | –
Fc1ccc(CNC2=Nc3cc(Cl)c(Cl)cc3NC23CCCCC3)c(F)c1 [C-265] | < 500 | < 50 | < 500 | 10000 to 20000 | – | –
c1ccc(CNC2=Nc3ccccc3NC23CCCCC3)cc1 [C-215] | < 1000 | < 200 | < 1000 | 20000 to 50000 | – | –
FC(F)(F)c1cccc(CNC2=Nc3cc(Cl)c(Cl)cc3NC23CCCCC3)c1 [C-264] | < 500 | < 50 | < 500 | 10000 to 20000 | – | –
Fc1cc2c(cc1F)NC1(CCNCC1)C(NCc1cccc(Cl)c1)=N2 [N-117] | < 50 | < 10 | < 50 | 1000 to 2000 | – | –
O=S1(=O)CCC2(CC1)Nc1ccccc1N=C2NCc1ccccc1 [O/S-363] | < 2000 | < 2000 | < 5000 | 10000 to 20000 | – | –

Compound | IC50 [1] [nM] | IC50 [2, 5] [nM] | IC50 [3, 6] [nM] | CC50 [4] [nM] | IC50 ([2]; BSO 50 μM, cell survival (AquaBluer), read-out: SH-SY5Y/BSO (Example B.1) IC50) [nM] | IC50 ([3]; glutamate 5 mM, 72 hours, cell survival, read-out: Ht22/GLU (Example B.2) IC50) [nM]
c1ccc(C(CNC2=Nc3ccccc3NC23CCNCC3)c2ccccc2)cc1 [N-220] | < 50 | < 50 | < 20 | 2000 to 5000 | – | –
Cc1cc(C)cc(CNC2=Nc3cc(Cl)c(Cl)cc3NC23CCCCCC3)c1 [C-262] | < 500 | < 100 | < 500 | 10000 to 20000 | – | –
Clc1ccc(CNC2=Nc3ccccc3NC23CCCCC3)cc1Cl [C-228] | < 50 | < 50 | < 500 | 20000 to 50000 | – | –
Clc1cccc(CNC2=Nc3cc4c(cc3NC23CCCCC3)OCCO4)c1 [C-227] | < 50 | < 500 | < 1000 | 20000 to 50000 | – | –
Clc1cccc(CNC2=Nc3ccccc3NC23CCCCCCC3)c1 [C-206] | < 500 | < 50 | < 500 | 5000 to 10000 | – | –
Cc1cc2c(cc1C)NC1(CCNCC1)C(NCc1cccc(F)c1)=N2 [N-257] | < 100 | < 20 | < 100 | 1000 to 2000 | – | –
NC1CCC2(CC1)Nc1ccccc1N=C2NCc1ccccc1 (centres unmarked) [C-257] | < 200 | < 100 | < 500 | 2000 to 5000 | – | –
CC(=O)NC1CCC2(CC1)Nc1ccccc1N=C2NCc1ccccc1 (centres unmarked) [C-249] | < 5000 | < 1000 | < 5000 | 50000 to 100000 | – | –
CC(=O)N1CCC2(CC1)Nc1ccccc1N=C2NCc1cccc(Cl)c1 [N-99] | < 1000 | < 200 | < 1000 | 50000 to 100000 | – | –
CC1CC2(CCN1)Nc1ccccc1N=C2NCc1ccccc1 (centres unmarked) [N-240] | < 500 | < 100 | < 500 | 10000 to 20000 | – | –
CN1CCC2(CC1)Nc1ccccc1N=C2NCc1ccccc1 [N-204] | < 500 | < 50 | < 500 | 20000 to 50000 | – | –
CC1CN(C)CCC12Nc1ccccc1N=C2NCc1ccccc1 (centres unmarked) [N-256] | < 500 | < 50 | < 500 | 10000 to 20000 | – | –
FC(F)(F)c1cccc(CNC2=Nc3cc(Cl)c(Cl)cc3NC23CCCCCC3)c1 [C-260] | < 200 | < 50 | < 500 | 5000 to 10000 | – | –
Cc1cc(C)cc(CNC2=Nc3ccccc3NC23CCNCC3)c1 [N-217] | < 100 | < 50 | < 50 | 20000 to 50000 | – | –
Clc1ccccc1CNC1=Nc2ccccc2NC12CCOCC2 [O/S-1] | < 1000 | < 500 | < 1000 | 50000 to 100000 | – | –
Cc1cccc2c1NC1(CCCCC1)C(NCc1ccccc1)=N2 [C-263] | < 500 | < 50 | < 500 | 10000 to 20000 | – | –
Cc1cc(C)cc(CNC2=Nc3cc(C)c(C)cc3NC23CCNCC3)c1 [N-262] | < 50 | < 20 | < 50 | 500 to 1000 | – | –
Clc1cccc(CNC2=Nc3ccccc3NC23CCSCC3)c1 [O/S-168] | < 200 | < 100 | < 500 | 20000 to 50000 | – | –
Fc1cccc(F)c1CNC1=Nc2ccccc2NC12CCNCC2 [N-231] | < 50 | < 100 | < 50 | 10000 to 20000 | – | –
